Experiments:
Assay in all cases: Test B pre-/postemergence plant response
Assay type in all cases: in vivo
[1] = test system: wheat (Triticum aestivum); conditions: for Wheat plant response rating (0 to 100 scale): 62 g ai/ha, 0 is no effect, 13 to 15 days
Procedure, shortened: (§1)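 Visual ratings on a 0–100 scale (100 = complete control) were made versus untreated controls 13–15 days after treatment in a greenhouse. Compounds in surfactant-containing non-phytotoxic solvent were applied preemergence to seeds in loam–sand blend or postemergence to 1- to 4-leaf plants (2–18 cm).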

kochia (Kochia scoparia) = conditions: for Kochia plant response rating (0 to 100 scale): 62 g ai/ha, 0 is no effect, 13 to 15 days
Procedure, shortened: as §1

[2] = test system: velvetleaf (Abutilon theophrasti); conditions: for Velvetleaf plant response rating (0 to 100 scale): 62 g ai/ha, 0 is no effect, 13 to 15 days
Procedure, shortened: as §1

[3] = test system: johnsongrass (Sorghum halepense); conditions: for Johnsongrass plant response rating (0 to 100 scale): 62 g ai/ha, 0 is no effect, 13 to 15 days
Procedure, shortened: as §1

[4] = test system: woolly cupgrass (Eriochloa villosa); conditions: for Cupgrass, Woolly plant response rating (0 to 100 scale): 62 g ai/ha, 0 is no effect, 13 to 15 days
Procedure, shortened: as §1

soybean (Glycine max) = conditions: for Soybean plant response rating (0 to 100 scale): 62 g ai/ha, 0 is no effect, 13 to 15 days
Procedure, shortened: as §1

corn (Zea mays) = conditions: for Corn plant response rating (0 to 100 scale): 62 g ai/ha, 0 is no effect, 13 to 15 days
Procedure, shortened: as §1

[5] = test system: large crabgrass (Digitaria sanguinalis); conditions: for Crabgrass, Large plant response rating (0 to 100 scale): 62 g ai/ha, 0 is no effect, 13 to 15 days
Procedure, shortened: as §1

[6] = test system: goosegrass (Eleusine indica); conditions: for Goosegrass plant response rating (0 to 100 scale): 62 g ai/ha, 0 is no effect, 13 to 15 days
Procedure, shortened: as §1

[7] = test system: Surinam grass (Brachiaria decumbens); conditions: for Surinam Grass plant response rating (0 to 100 scale): 62 g ai/ha, 0 is no effect, 13 to 15 days
Procedure, shortened: as §1

[8] = test system: Italian ryegrass (Lolium multiflorum); conditions: for Ryegrass, Italian plant response rating (0 to 100 scale): 62 g ai/ha, 0 is no effect, 13 to 15 days
Procedure, shortened: as §1

[9] = test system: downy bromegrass (Bromus tectorum); conditions: for Bromegrass, Downy plant response rating (0 to 100 scale): 62 g ai/ha, 0 is no effect, 13 to 15 days
Procedure, shortened: as §1

[10] = test system: ragweed (common ragweed, Ambrosia elatior); conditions: for Ragweed plant response rating (0 to 100 scale): 62 g ai/ha, 0 is no effect, 13 to 15 days
Procedure, shortened: as §1

[11] = test system: pigweed (Amaranthus retroflexus); conditions: for Pigweed plant response rating (0 to 100 scale): 62 g ai/ha, 0 is no effect, 13 to 15 days
Procedure, shortened: as §1

[12] = test system: blackgrass (Alopecurus myosuroides); conditions: for Blackgrass plant response rating (0 to 100 scale): 62 g ai/ha, 0 is no effect, 13 to 15 days
Procedure, shortened: as §1

[13] = test system: lambsquarters (Chenopodium album); conditions: for Lambsquarters plant response rating (0 to 100 scale): 62 g ai/ha, 0 is no effect, 13 to 15 days
Procedure, shortened: as §1

wild oat (Avena fatua) = conditions: for Oat, Wild plant response rating (0 to 100 scale): 62 g ai/ha, 0 is no effect, 13 to 15 days
Procedure, shortened: as §1

[14] = test system: yellow nutsedge (Cyperus esculentus); conditions: for Nutsedge, Yellow plant response rating (0 to 100 scale): 62 g ai/ha, 0 is no effect, 13 to 15 days
Procedure, shortened: as §1

[15] = 31 g ai/ha, postemergence, scale 0 to 100, 0 is no effect, 100 is complete control
[16] = postemergence, 100 is complete control
[17] = Postemergence, 125 g ai/ha, visual rating after 13 to 15 days, scale 0 (no effect) to 100 (complete control)
[18] = Postemergence, 250 g ai/ha, scale 0 to 100 (0 no effect, 100 complete control)

## CCCc1ncc(C(=O)C2=C(O)CCCC2=O)c(=O)n1-c1cccc(C)c1 [Compound 79]
[1]; [15]
  Plant response rating, Wheat: 10
[1]; [16]
  Wheat plant response rating (0 to 100 scale): 25
[1]; [17]
  Plant response rating, Wheat: 35
[1]; [18]
  Plant response rating, Wheat: 40
Kochia (Kochia scoparia); [15]
  Plant response rating, Kochia: 75
Kochia (Kochia scoparia); [16]
  Kochia plant response rating (0 to 100 scale): 75
Kochia (Kochia scoparia); [17]
  Plant response rating, Kochia: 75
Kochia (Kochia scoparia); [18]
  Plant response rating, Kochia: 80
[2]; [15]
  Plant response rating, Velvetleaf: 95
[2]; [16]
  Velvetleaf plant response rating (0 to 100 scale): 98
[2]; [17]
  Plant response rating, Velvetleaf: 98
[2]; [18]
  Plant response rating, Velvetleaf: 100
[3]; [15]
  Plant response rating, Johnsongrass: 0
[3]; [16]
  Johnsongrass plant response rating (0 to 100 scale): 65
[3]; [17]
  Plant response rating, Johnsongrass: 70
[3]; [18]
  Plant response rating, Johnsongrass: 75
[4]; [15]
  Plant response rating, Cupgrass, Woolly: 10
[4]; [16]
  Cupgrass, Woolly plant response rating (0 to 100 scale): 40
[4]; [17]
  Plant response rating, Cupgrass, Woolly: 65
[4]; [18]
  Plant response rating, Cupgrass, Woolly: 75
Soybean (Glycine max); [15]
  Plant response rating, Soybean: 75
Soybean (Glycine max); [16]
  Soybean plant response rating (0 to 100 scale): 90
Soybean (Glycine max); [17]
  Plant response rating, Soybean: 95
Soybean (Glycine max); [18]
  Plant response rating, Soybean: 98
Corn (Zea mays); [15]
  Plant response rating, Corn: 5
Corn (Zea mays); [16]
  Corn plant response rating (0 to 100 scale): 45
Corn (Zea mays); [17]
  Plant response rating, Corn: 60
Corn (Zea mays); [18]
  Plant response rating, Corn: 75
[5]; [15]
  Plant response rating, Crabgrass, Large: 80
[5]; [16]
  Crabgrass, Large plant response rating (0 to 100 scale): 85
[5]; [17]
  Plant response rating, Crabgrass, Large: 90
[5]; [18]
  Plant response rating, Crabgrass, Large: 95
[6]; [15]
  Plant response rating, Goosegrass: 45
[6]; [16]
  Goosegrass plant response rating (0 to 100 scale): 65
[6]; [17]
  Plant response rating, Goosegrass: 70
[6]; [18]
  Plant response rating, Goosegrass: 80
[7]; [15]
  Plant response rating, Surinam Grass: 20
[7]; [16]
  Surinam Grass plant response rating (0 to 100 scale): 45
[7]; [17]
  Plant response rating, Surinam Grass: 75
[7]; [18]
  Plant response rating, Surinam Grass: 90
[8]; [15]
  Plant response rating, Ryegrass, Italian: 20
[8]; [16]
  Ryegrass, Italian plant response rating (0 to 100 scale): 20
[8]; [17]
  Plant response rating, Ryegrass, Italian: 50
[8]; [18]
  Plant response rating, Ryegrass, Italian: 55
[9]; [15]
  Plant response rating, Bromegrass, Downy: 5
[9]; [16]
  Bromegrass, Downy plant response rating (0 to 100 scale): 10
[9]; [17]
  Plant response rating, Bromegrass, Downy: 30
[9]; [18]
  Plant response rating, Bromegrass, Downy: 65
[10]; [15]
  Plant response rating, Ragweed: 80
[10]; [16]
  Ragweed plant response rating (0 to 100 scale): 85
[10]; [17]
  Plant response rating, Ragweed: 95
[10]; [18]
  Plant response rating, Ragweed: 98
[11]; [15]
  Plant response rating, Pigweed: 100
[11]; [16]
  Pigweed plant response rating (0 to 100 scale): 100
[11]; [17]
  Plant response rating, Pigweed: 100
[11]; [18]
  Plant response rating, Pigweed: 100
[12]; [15]
  Plant response rating, Blackgrass: 5
[12]; [16]
  Blackgrass plant response rating (0 to 100 scale): 15
[12]; [17]
  Plant response rating, Blackgrass: 30
[12]; [18]
  Plant response rating, Blackgrass: 45
[13]; [15]
  Plant response rating, Lambsquarters: 95
[13]; [16]
  Lambsquarters plant response rating (0 to 100 scale): 98
[13]; [17]
  Plant response rating, Lambsquarters: 100
[13]; [18]
  Plant response rating, Lambsquarters: 100
Wild oat (Avena fatua); [15]
  Plant response rating, Oat, Wild: 40
Wild oat (Avena fatua); [16]
  Oat, Wild plant response rating (0 to 100 scale): 45
Wild oat (Avena fatua); [17]
  Plant response rating, Oat, Wild: 60
Wild oat (Avena fatua); [18]
  Plant response rating, Oat, Wild: 75
[14]; [15]
  Plant response rating, Nutsedge, Yellow: 25
[14]; [16]
  Nutsedge, Yellow plant response rating (0 to 100 scale): 60
[14]; [17]
  Plant response rating, Nutsedge, Yellow: 70
[14]; [18]
  Plant response rating, Nutsedge, Yellow: 80

## COCCOCCn1c(-c2ccccc2)ncc(C(=O)C2=C(O)CCCC2=O)c1=O [Compound 91]
[1]; [15]
  Plant response rating, Wheat: 0
[1]; [16]
  Wheat plant response rating (0 to 100 scale): 10
[1]; [18]
  Plant response rating, Wheat: 50
Kochia (Kochia scoparia); [15]
  Plant response rating, Kochia: 20
Kochia (Kochia scoparia); [16]
  Kochia plant response rating (0 to 100 scale): 80
Kochia (Kochia scoparia); [18]
  Plant response rating, Kochia: 95
[2]; [15]
  Plant response rating, Velvetleaf: 98
[2]; [16]
  Velvetleaf plant response rating (0 to 100 scale): 100
[2]; [18]
  Plant response rating, Velvetleaf: 100
[3]; [15]
  Plant response rating, Johnsongrass: 65
[3]; [16]
  Johnsongrass plant response rating (0 to 100 scale): 90
[3]; [18]
  Plant response rating, Johnsongrass: 100
[4]; [15]
  Plant response rating, Cupgrass, Woolly: 70
[4]; [16]
  Cupgrass, Woolly plant response rating (0 to 100 scale): 85
[4]; [17]
  Plant response rating, Cupgrass, Woolly: 98
[4]; [18]
  Plant response rating, Cupgrass, Woolly: 98
Soybean (Glycine max); [15]
  Plant response rating, Soybean: 75
Soybean (Glycine max); [16]
  Soybean plant response rating (0 to 100 scale): 85
Soybean (Glycine max); [18]
  Plant response rating, Soybean: 98
Corn (Zea mays); [15]
  Plant response rating, Corn: 25
Corn (Zea mays); [16]
  Corn plant response rating (0 to 100 scale): 35
Corn (Zea mays); [17]
  Plant response rating, Corn: 45
Corn (Zea mays); [18]
  Plant response rating, Corn: 60
[5]; [15]
  Plant response rating, Crabgrass, Large: 80
[5]; [16]
  Crabgrass, Large plant response rating (0 to 100 scale): 95
[5]; [17]
  Plant response rating, Crabgrass, Large: 98
[5]; [18]
  Plant response rating, Crabgrass, Large: 100
[6]; [15]
  Plant response rating, Goosegrass: 30
[6]; [16]
  Goosegrass plant response rating (0 to 100 scale): 75
[6]; [18]
  Plant response rating, Goosegrass: 85
[7]; [15]
  Plant response rating, Surinam Grass: 85
[7]; [16]
  Surinam Grass plant response rating (0 to 100 scale): 98
[7]; [18]
  Plant response rating, Surinam Grass: 98
[8]; [15]
  Plant response rating, Ryegrass, Italian: 0
[8]; [16]
  Ryegrass, Italian plant response rating (0 to 100 scale): 5
[8]; [18]
  Plant response rating, Ryegrass, Italian: 20
[9]; [15]
  Plant response rating, Bromegrass, Downy: 0
[9]; [16]
  Bromegrass, Downy plant response rating (0 to 100 scale): 5
[9]; [17]
  Plant response rating, Bromegrass, Downy: 5
[9]; [18]
  Plant response rating, Bromegrass, Downy: 30
[10]; [15]
  Plant response rating, Ragweed: 85
[10]; [16]
  Ragweed plant response rating (0 to 100 scale): 85
[10]; [18]
  Plant response rating, Ragweed: 98
[11]; [15]
  Plant response rating, Pigweed: 100
[11]; [16]
  Pigweed plant response rating (0 to 100 scale): 100
[11]; [18]
  Plant response rating, Pigweed: 100
[12]; [15]
  Plant response rating, Blackgrass: 10
[12]; [16]
  Blackgrass plant response rating (0 to 100 scale): 20
[12]; [17]
  Plant response rating, Blackgrass: 30
[12]; [18]
  Plant response rating, Blackgrass: 50
[13]; [15]
  Plant response rating, Lambsquarters: 85
[13]; [16]
  Lambsquarters plant response rating (0 to 100 scale): 100
[13]; [18]
  Plant response rating, Lambsquarters: 100
Wild oat (Avena fatua); [15]
  Plant response rating, Oat, Wild: 30
Wild oat (Avena fatua); [16]
  Oat, Wild plant response rating (0 to 100 scale): 30
Wild oat (Avena fatua); [18]
  Plant response rating, Oat, Wild: 50
[14]; [15]
  Plant response rating, Nutsedge, Yellow: 50
[14]; [16]
  Nutsedge, Yellow plant response rating (0 to 100 scale): 65
[14]; [18]
  Plant response rating, Nutsedge, Yellow: 75
